Source: patent US6534523B1, “Hepatitis C inhibitor tri-peptides” (Boehringer Ingelheim (Canada) Ltd., priority 1998, dated 2003)

molecular target: HCV NS3 protease (UniProt P26663); type: biochemical, HCV genotype 1b; set-up: rows headed: IC50 (μM); IC50 (μM); details: Table 3
Procedure: Recombinant HCV NS3 Protease/NS4A Cofactor Peptide Radiometric Assay
The enzyme was cloned, expressed and prepared according to the protocol described in Example 36. The enzyme was stored at −80° C., thawed on ice and diluted just prior to use in the assay buffer containing the NS4A cofactor peptide.
The substrate used for the NS3 protease/NS4A cofactor peptide radiometric assay, DDIVPC-SMSYTW, is cleaved between the cysteine and the serine residues by the enzyme. The sequence DDIVPC-SMSYTW corresponds to the NS5A/NS5B natural cleavage site in which the cysteine residue in P2 has been substituted for a proline. […] (molar ratio enzyme:cofactor 1:100) in the absence or presence of inhibitors. The separation of substrate from products is performed by adding avidin-coated agarose beads to the assay mixture followed by filtration. The amount of SMS[^125I-Y]TW product found in the filtrate allows for the calculation of the percentage of substrate conversion and of the percentage of inhibition.
The enzymatic reaction was initiated by the addition of the enzyme/NS4A peptide solution and the assay mixture was incubated for 40 min at 23° C. under gentle agitation. Ten (10) μL of 0.5N NaOH were added and 10 μL 1 M MES, pH 5.8 were added to quench the enzymatic reaction.
A non-linear curve fit with the Hill model was applied to the inhibition-concentration data, and the 50% effective concentration (IC50) was calculated by the use of SAS software (Statistical Software System; SAS Institute, Inc. Cary, N.C.). […]
The NS2-NS5B-3′ non coding region was cloned by RT-PCR into the pCR®3 vector (Invitrogen) using RNA extracted from the serum of an HCV genotype 1b infected individual (provided by Dr. Bernard Willems, Hôpital St-Luc, Montréal, Québec, Canada). The NS3-NS4A DNA region was then subcloned by PCR into the pFastBac™ HTa baculovirus expression vector (Gibco/BRL). The vector sequence includes a region encoding a 28-residue N-terminal sequence which contains a hexahistidine tag. The Bac-to-Bac™ baculovirus expression system (Gibco/BRL) was used to produce the recombinant baculovirus. The full length mature NS3 and NS4A heterodimer protein (His-NS3-NS4AFL) was expressed by infecting 10^6 Sf21 cells/mL with the recombinant baculovirus at a multiplicity of infection of 0.1-0.2 at 27° C. The infected culture was harvested 48 to 64 h later by centrifugation at 4° C. The cell pellet was homogenized in 50 mM NaPO4, pH 7.5, 40% glycerol (w/v), 2 mM β-mercaptoethanol, in presence of a cocktail of protease inhibitors. His-NS3-NS4AFL was then extracted from the cell lysate with 1.5% NP-40, 0.5% Triton X-100, 0.5M NaCl, and a DNase treatment. After ultracentrifugation, the soluble extract was diluted 4-fold and bound on a Pharmacia Hi-Trap Ni-chelating column. […] The His-NS3-NS4AFL was stored at −80° C. in 50 mM sodium phosphate, pH 7.5, 10% (w/v) glycerol, 0.5 M NaCl, 0.25 M imidazole, 0.1% NP-40. It was thawed on ice and diluted just prior to use. The protease activity of His-NS3-NS4AFL was assayed in 50 mM Tris-HCl, pH 8.0, 0.25 M sodium citrate, 0.01% (w/v) n-dodecyl-β-D-maltoside, 1 mM TCEP. Five (5) μM of the internally quenched substrate anthranilyl-DDIVPAbu[C(O)—O]-AMY(3-NO2)TW-OH in presence of various concentrations of inhibitor were incubated with 1.5 nM of His-NS3-NS4AFL for 45 min at 23° C. […] The reaction was terminated with the addition of 1M MES, pH 5.8. Fluorescence of the N-terminal product was monitored on a Perkin-Elmer LS-50B fluorometer equipped with a 96-well plate reader (excitation wavelength: 325 nm; emission wavelength: 423 nm).
The following tables list compounds representative of the invention.

Chain of HCV NS3 protease (P26663 1027-1206, other chains not shown): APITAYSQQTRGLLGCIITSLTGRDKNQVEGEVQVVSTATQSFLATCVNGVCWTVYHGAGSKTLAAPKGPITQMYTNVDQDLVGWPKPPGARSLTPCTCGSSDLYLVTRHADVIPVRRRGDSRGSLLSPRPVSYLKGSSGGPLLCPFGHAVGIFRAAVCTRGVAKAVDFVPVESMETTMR

Structure (SMILES) | IC50
C=C[C@H]1C[C@]1(NC(=O)[C@@H]1C[C@@H](Oc2cccc3ccccc23)CN1C(=O)[C@@H](NC(=O)OC(C)(C)C)C1CCCCC1)C(=O)O [compound 308] | 1600 nM

same assay, conditions: Table 5

Structure (SMILES) | IC50
C=CC1CC1(NC(=O)C1CC(Oc2ccnc3ccccc23)CN1C(=O)C(NC(=O)OC(C)(C)C)C(C)CC)C(=O)O (stereo not shown) [compound 510] | 255 nM
C=CC1CC1(NC(=O)C1CC(Oc2ccnc3ccccc23)CN1C(=O)C(NC(=O)OC(C)(C)C)C(C)OC)C(=O)O (stereo not shown) [compound 505] | 790 nM

same assay, conditions: Table 6

Structure (SMILES) | IC50
C=CC1CC1(NC(=O)C1CC(Oc2cc(CN3CCOCC3)nc3ccccc23)CN1C(=O)C(NC(=O)OC(C)(C)C)C(C)(C)C)C(=O)O (stereo not shown) [compound 609] | 1700 nM
C=CC1CC1(NC(=O)C1CC(Oc2cc(-c3csc(NC(C)=O)n3)nc3cc(N(CC)CC)ccc23)CN1C(=O)C(NC(=O)OC(C)(C)C)C(C)(C)C)C(=O)O (stereo not shown) [compound 630] | 43 nM
C=CC1CC1(NC(=O)C1CC(Oc2ccnc3cc(Cl)ccc23)CN1C(=O)C(CC(C)C)NC(=O)OC(C)(C)C)C(=O)O (stereo not shown) [compound 608] | 1450 nM
C=CC1CC1(NC(=O)C1CC(Oc2cc(-c3ccccc3)nc3cc(Br)ccc23)CN1C(=O)C(NC(=O)OC(C)(C)C)C(C)(C)C)C(=O)O (stereo not shown) [compound 626] | 240 nM
C=CC1CC1(NC(=O)C1CC(Oc2cc(-c3ccccc3)nc3cc(OC(C)C)ccc23)CN1C(=O)C(NC(=O)OC(C)(C)C)C(C)(C)C)C(=O)O (stereo not shown) [compound 605] | 195 nM
C=CC1CC1(NC(=O)C1CC(Oc2cc(N3CCCC3)nc3ccccc23)CN1C(=O)C(NC(=O)OC(C)(C)C)C(C)(C)C)C(=O)O (stereo not shown) [compound 613] | 1000 nM
C=CC1CC1(NC(=O)C1CC(Oc2cc(-c3csc(NC(C)=O)n3)nc3cc(N(C)C)ccc23)CN1C(=O)C(NC(=O)OC(C)(C)C)C(C)(C)C)C(=O)O (stereo not shown) [compound 628] | 11 nM
C=CC1CC1(NC(=O)C1CC(Oc2cc(-c3ccccc3)nc3cc(SC)ccc23)CN1C(=O)C(NC(=O)OC(C)(C)C)C(C)(C)C)C(=O)O (stereo not shown) [compound 625] | 160 nM
C=CC1CC1(NC(=O)C1CC(Oc2cc(CN3CCCC3)nc3ccccc23)CN1C(=O)C(NC(=O)OC(C)(C)C)C(C)(C)C)C(=O)O (stereo not shown) [compound 614] | 2200 nM
C=CC1CC1(NC(=O)C1CC(Oc2cc(N(C)C)nc3ccccc23)CN1C(=O)C(NC(=O)OC(C)(C)C)C(C)(C)C)C(=O)O (stereo not shown) [compound 624] | 1300 nM
C=CC1CC1(NC(=O)C1CC(Oc2cc(-c3csc(C)n3)nc3ccccc23)CN1C(=O)C(NC(=O)OC(C)(C)C)C(C)(C)C)C(=O)O (stereo not shown) [compound 621] | 58 nM
C=CC1CC1(NC(=O)C1CC(Oc2cc(-c3ccccc3)nc3c(OC)c(OC)ccc23)CN1C(=O)C(NC(=O)OC(C)(C)C)C(C)(C)C)C(=O)O (stereo not shown) [compound 602] | 41 nM

same assay, conditions: Table 7

Structure (SMILES) | IC50
C=CC1CC1(NC(=O)C1CC(Oc2cc(-c3csc(N)n3)nc3cc(OC)ccc23)CN1C(=O)C(NC(=O)OC(C)(C)C)C(C)(C)C)C(=O)O (stereo not shown) [compound 709] | 21 nM
C=CC1CC1(NC(=O)C1CC(Oc2cc(-c3ccncn3)nc3cc(OC)ccc23)CN1C(=O)C(NC(=O)OC(C)(C)C)C(C)(C)C)C(=O)O (stereo not shown) [compound 725] | 46 nM
C=CC1C[C@]1(NC(=O)[C@@H]1C[C@@H](Oc2cc(N(C)C)nc3cc(OC)ccc23)CN1C(=O)[C@@H](NC(=O)OC(C)(C)C)C(C)(C)C)C(=O)O (stereo partly shown) [compound 712] | 100 nM
C=CC1CC1(NC(=O)C1CC(Oc2cc(SCC)nc3cc(OC)ccc23)CN1C(=O)C(NC(=O)OC(C)(C)C)C(C)(C)C)C(=O)O (stereo not shown) [compound 734] | 44 nM
C=CC1CC1(NC(=O)C1CC(Oc2cc(-c3ccccn3)nc3cc(OC)ccc23)CN1C(=O)C(NC(=O)OC(C)(C)C)C(C)(C)C)C(=O)O (stereo not shown) [compound 715] | 31 nM
C=CC1CC1(NC(=O)C1CC(Oc2cc(-c3csc(NC)n3)nc3cc(OC)ccc23)CN1C(=O)C(NC(=O)OC(C)(C)C)C(C)(C)C)C(=O)O (stereo not shown) [compound 717] | 28 nM

same assay, conditions: Table 8

Structure (SMILES) | IC50
C=CC1CC1(NC(=O)C1CC(Oc2cc(-c3ccccc3)nc3cc(OC)ccc23)CN1C(=O)C(Nc1cccc(-c2ccccc2)c1)C(C)C)C(=O)O (stereo not shown) [compound 854] | 370 nM
C=CC1CC1(NC(=O)C1CC(Oc2cc(-c3ccccc3)nc3cc(OC)ccc23)CN1C(=O)C(NC(=S)NC(C)(C)C)C(C)(C)C)C(=O)O (stereo not shown) [compound 813] | 20 nM
C=CC1CC1(NC(=O)C1CC(Oc2cc(-c3ccccc3)nc3cc(OC)ccc23)CN1C(=O)C(Nc1ccccc1F)C(C)C)C(=O)O (stereo not shown) [compound 864] | 450 nM
C=CC1CC1(NC(=O)C1CC(Oc2cc(-c3ccccc3)nc3cc(OC)ccc23)CN1C(=O)C(NC(=O)COc1c(C)cccc1C)C(C)(C)C)C(=O)O (stereo not shown) [compound 810] | 450 nM
C=CC1CC1(NC(=O)C1CC(Oc2cc(-c3ccccc3)nc3cc(OC)ccc23)CN1C(=O)C(NC(=O)NC(C)C(C)(C)C)C(C)(C)C)C(=O)O (stereo not shown) [compound 873] | 19 nM
C=CC1CC1(NC(=O)C1CC(Oc2cc(-c3ccccc3)nc3cc(OC)ccc23)CN1C(=O)C(NC(=O)C(O)C1CCCCC1)C(C)(C)C)C(=O)O (stereo not shown) [compound 802] | 24 nM
C=CC1CC1(NC(=O)C1CC(Oc2cc(-c3ccccc3)nc3cc(OC)ccc23)CN1C(=O)C(Nc1ccccc1)C(C)C)C(=O)O (stereo not shown) [compound 809] | 71 nM
C=CC1CC1(NC(=O)C1CC(Oc2cc(-c3ccccc3)nc3cc(OC)ccc23)CN1C(=O)C(NC(=O)NN(C)C)C(C)(C)C)C(=O)O (stereo not shown) [compound 827] | 270 nM
C=CC1CC1(NC(=O)C1CC(Oc2cc(-c3ccccc3)nc3cc(OC)ccc23)CN1C(=O)C(NC1CCCCC1)C(C)C)C(=O)O (stereo not shown) [compound 859] | 830 nM
C=CC1CC1(NC(=O)C1CC(Oc2cc(-c3ccccc3)nc3cc(OC)ccc23)CN1C(=O)C(NC(=O)NC(C)(C)CC)C(C)(C)C)C(=O)O (stereo not shown) [compound 870] | 9 nM
C=CC1CC1(NC(=O)C1CC(Oc2cc(-c3ccccc3)nc3cc(OC)ccc23)CN1C(=O)C(Nc1ccc2c(c1)OCO2)C(C)C)C(=O)O (stereo not shown) [compound 846] | 104 nM
C=CC1CC1(NC(=O)C1CC(Oc2cc(-c3ccc(Cl)cc3)nc3cc(OC)ccc23)CN1C(=O)C(NC(=O)OC(C)(C)C)C(C)(C)C)C(=O)O (stereo not shown) [compound 811] | 40 nM
C=CC1CC1(NC(=O)C1CC(Oc2cc(-c3ccccc3)nc3cc(OC)ccc23)CN1C(=O)C(Nc1ccc(C#N)cc1)C(C)C)C(=O)O (stereo not shown) [compound 839] | 100 nM
C=CC1CC1(NC(=O)C1CC(Oc2cc(-c3ccccc3)nc3cc(OC)ccc23)CN1C(=O)C(NC(=O)C(C)C1CCCCC1)C(C)(C)C)C(=O)O (stereo not shown) [compound 806] | 36 nM
C=CC1CC1(NC(=O)C1CC(Oc2cc(-c3ccccc3)nc3cc(OC)ccc23)CN1C(=O)C(NC(=O)NC(C)C)C(C)(C)C)C(=O)O (stereo not shown) [compound 807] | 10 nM

same assay, conditions: Table 9

Structure (SMILES) | IC50
C=CC1CC1(NC(=O)C1CC(Oc2cc(-c3ccccc3)nc3cc(OC)ccc23)CN1C(=O)C(NC(=O)OC(C)C(C)(C)C)C(C)(C)C)C(=O)O (stereo not shown) [compound 910] | 56 nM
C=CC1CC1(NC(=O)C1CC(Oc2cc(-c3ccccc3)nc3cc(OC)ccc23)CN1C(=O)C(NC(=O)C(CC(=O)O)C1CCCCC1)C(C)(C)C)C(=O)O (stereo not shown) [compound 903] | 5 nM
C=CC1CC1(NC(=O)C1CC(Oc2cc(-c3ccccc3)nc3cc(OC)ccc23)CN1C(=O)C(NC(=O)c1cccc(O)c1)C(C)(C)C)C(=O)O (stereo not shown) [compound 904] | 95 nM
C=CC1CC1(NC(=O)C1CC(Oc2cc(-c3ccccc3)nc3cc(OC)ccc23)CN1C(=O)C(NC(=O)OC1CCC1)C(C)(C)C)C(=O)O (stereo not shown) [compound 905] | 29 nM
